# Results reported in patent US20060292683A1, “Cross-beta structures on microbial organisms” (Crossbeta Biosciences B.V., priority 2005, published 2006).
# B1: factor XII: full-length purified factor XII (protein, UniProt P00748 1-615, looked up)
# chain: MRALLLLGFLLVSLESTLSIPPWEAPKEHKYKAEEHTVVLTVTGEPCHFPFQYHRQLYHKCTHKGRPGPQPWCATTPNFDQDQRWGYCLEPKKVKDHCSKHSPCQKGGTCVNMPSGPHCLCPQHLTGNHCQKEKCFEPQLLRFFHKNEIWYRTEQAAVARCQCKGPDAHCQRLASQACRTNPCLHGGRCLEVEGHRLCHCPVGYTGAFCDVDTKASCYDGRGLSYRGLARTTLSGAPCQPWASEATYRNVTAEQARNWGLGGHAFCRNPDNDIRPWCFVLNRDRLSWEYCDLAQCQTPTQAAPPTPVSPRLHVPLMPAQPAPPKPQPTTRTPPQSQTPGALPAKREQPPSLTRNGPLSCGQRLRKSLSSMTRVVGGLVALRGAHPYIAALYWGHSFCAGSLIAPCWVLTAAHCLQDRPAPEDLTVVLGQERRNHSCEPCQTLAVRSYRLHEAFSPVSYQHDLALLRLQEDADGSCALLSPYVQPVCLPSGAARPSETTLCQVAGWGHQFEGAEEYASFLQEAQVPFLSLERCSAPDVHGSSILPGMLCAGFLEGGTDACQGDSGGPLVCEDQAAERRLTLQGIISWGSGCGDRNKPGVYTDVAYYLAWIREHTVS
# modifications: full-length
# Tested on: protein and peptide aggregates with cross-β structure conformation
# Assay: ELISA binding to immobilized peptides with cross-β structure conformation
# Conditions: immobilized Aβ, FP13, TTR11, LAM12 or IAPP; GST-tagged F domains
# Excerpt: FIG. 2: Binding of tPA, factor XII, fibronectin and finger domains thereof to compounds with cross-β structure. Panels A-C: Full-length purified tPA (Panel A), factor XII (Panel B) and fibronectin (Panel C) bind to immobilized peptides with cross-β structure conformation, in an ELISA.
# Previously, we established that tissue-type plasminogen activator specifically interacts with protein and peptide aggregates that comprise a cross-β structure conformation, a structural element found in amyloid-like polypeptide assemblies (Bouma et al., 2003; Kranenburg et al., 2002). Now, we expanded this analysis to other proteins that resemble tPA domain architecture and we separated domains of tPA. Binding of full-length tPA, factor XII and fibronectin, as well as of fibronectin type I (finger, F) domains of tPA and factor XII and F4-5 of fibronectin, to protein and peptide aggregates with cross-β structure conformation was analyzed in an ELISA. […] Binding of tPA and factor XII was established for immobilized amyloid-β(1-40) (Aβ) with amyloid-like properties, fibrin peptide FP13, that encompasses the tPA activating sequence 148KRLEVDIDIKIR160 (SEQ ID NO:——————) of the fibrin α-chain, TTR11, which is an 11 amino-acid residues peptide from transthyretin that forms cross-β structure, and LAM12, which is a 12 amino-acid residues peptide from laminin that forms cross-β structure (FIG. 2, Panels A and B). Negative controls were freshly dissolved, monomerized Aβ and non-amyloid murine islet amyloid polypeptide (mIAPP). For fibronectin, human amyloid IAPP is depicted instead of LAM12 (FIG. 2, Panel C).
row,Molecule,binding to cross-β structure rich compounds in ELISA
1,fibronectin F4-5: recombinant fibronectin type I domains 4-5 of fibronectin with carboxy terminal GST-tag,bind specifically
2,fibronectin: full-length purified fibronectin,bind specifically
3,B1,bind specifically
